Target: CDK4 (Homo sapiens, UniProt P11802+Q16531)
Test: HiBiT detection of HiBiT-tagged CDK4 protein level in MCF7 cells, 16 hours (Table 8)
Format: cell-based
Design: expressed in transfected cells; host or cells: MCF7
Conditions: MCF7 cells stably expressing HiBiT tagged target proteins; for activity at 0.01 µM: 10 nM, read-out: % CDK4 Relative Level (10 nM); for activity at 0.1 µM: 100 nM, read-out: % CDK4 Relative Level (100 nM)
Procedure: HiBiT detection system quantitatively measures total amounts of HiBiT-tagged proteins using a luminescent based method. MCF7 cells stably expressing HiBiT tagged target proteins were treated with heterobifunctional compounds at indicated concentrations for 16 hours, then lysed with Nano-Glo HiBiT Lytic detection reagents.

Chain of CDK4 (P11802 whole entry): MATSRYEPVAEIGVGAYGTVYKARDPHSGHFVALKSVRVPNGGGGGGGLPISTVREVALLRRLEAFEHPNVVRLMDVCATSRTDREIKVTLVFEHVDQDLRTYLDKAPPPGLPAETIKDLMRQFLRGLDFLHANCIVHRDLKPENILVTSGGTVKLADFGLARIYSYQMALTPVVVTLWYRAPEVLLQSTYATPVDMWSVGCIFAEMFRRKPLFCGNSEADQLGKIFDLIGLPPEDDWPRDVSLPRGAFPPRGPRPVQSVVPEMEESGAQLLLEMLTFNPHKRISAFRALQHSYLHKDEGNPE
Chain of CDK4 (P24385 whole entry partner): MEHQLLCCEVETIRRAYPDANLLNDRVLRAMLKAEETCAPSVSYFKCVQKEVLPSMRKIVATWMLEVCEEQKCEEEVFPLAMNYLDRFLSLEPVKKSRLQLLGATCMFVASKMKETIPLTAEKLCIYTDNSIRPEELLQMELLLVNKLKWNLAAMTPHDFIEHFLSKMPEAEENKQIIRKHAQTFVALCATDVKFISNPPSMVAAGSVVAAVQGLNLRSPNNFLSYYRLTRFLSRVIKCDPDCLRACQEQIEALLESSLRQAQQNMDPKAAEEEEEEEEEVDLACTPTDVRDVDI
Chain of CDK4 (Q16531 2-1140 limits assumed): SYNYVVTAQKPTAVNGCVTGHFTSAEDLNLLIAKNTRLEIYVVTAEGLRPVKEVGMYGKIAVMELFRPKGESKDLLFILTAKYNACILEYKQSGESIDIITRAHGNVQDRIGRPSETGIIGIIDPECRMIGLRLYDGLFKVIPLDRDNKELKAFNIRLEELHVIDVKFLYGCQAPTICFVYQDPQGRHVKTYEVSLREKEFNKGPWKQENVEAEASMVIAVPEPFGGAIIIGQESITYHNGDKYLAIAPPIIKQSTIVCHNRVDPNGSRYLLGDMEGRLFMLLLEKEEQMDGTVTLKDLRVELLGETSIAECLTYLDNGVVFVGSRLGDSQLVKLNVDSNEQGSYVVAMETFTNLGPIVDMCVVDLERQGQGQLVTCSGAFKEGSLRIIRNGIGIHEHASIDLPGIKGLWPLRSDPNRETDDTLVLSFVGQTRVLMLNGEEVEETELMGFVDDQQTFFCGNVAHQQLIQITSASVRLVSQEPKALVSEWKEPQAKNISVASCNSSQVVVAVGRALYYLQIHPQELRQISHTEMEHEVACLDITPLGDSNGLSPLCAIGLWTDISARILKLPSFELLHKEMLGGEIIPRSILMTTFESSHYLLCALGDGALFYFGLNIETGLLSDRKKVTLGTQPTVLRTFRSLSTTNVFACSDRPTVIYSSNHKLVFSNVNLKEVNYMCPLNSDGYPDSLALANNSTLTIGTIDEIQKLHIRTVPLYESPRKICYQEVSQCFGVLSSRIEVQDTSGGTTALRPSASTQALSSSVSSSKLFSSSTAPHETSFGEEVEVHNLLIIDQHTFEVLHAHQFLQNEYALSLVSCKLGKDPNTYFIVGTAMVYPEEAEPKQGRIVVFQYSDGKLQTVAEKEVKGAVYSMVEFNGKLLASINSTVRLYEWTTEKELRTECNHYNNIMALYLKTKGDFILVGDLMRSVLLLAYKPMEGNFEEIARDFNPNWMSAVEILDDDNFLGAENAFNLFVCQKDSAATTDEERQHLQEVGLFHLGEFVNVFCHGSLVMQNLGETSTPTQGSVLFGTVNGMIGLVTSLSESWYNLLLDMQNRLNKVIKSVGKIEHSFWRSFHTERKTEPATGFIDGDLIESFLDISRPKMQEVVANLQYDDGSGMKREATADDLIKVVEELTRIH

Compound	activity at 0.01 µM	activity at 0.1 µM
CNc1ccc(C(=O)Nc2ccc(N(C)C)nn2)c(NCCCC(=O)N2CCN(c3ccc(Nc4ncc(F)c(-c5cc(F)c6nc(C)n(C(C)C)c6c5)n4)nc3)CC2)n1 [CPD-649, N-(6-(dimethylamino)pyridazin-3-yl)-2-((4-(4-(6-((5-fluoro-4-(4-fluoro-1-isopropyl-2-methyl-1H-benzo[d]imidazol-6-yl)pyrimidin-2-yl)amino)pyridin-3-yl)piperazin-1-yl)-4-oxobutyl)amino)-6-(methylamino)nicotinamide]	> 85%	> 85%
CNc1ccc(C(=O)Nc2ccc(N(C)C)nn2)c(NCCCCC(=O)N2CCN(c3ccc(Nc4ncc(F)c(-c5cc(F)c6nc(C)n(C(C)C)c6c5)n4)nc3)CC2)n1 [CPD-650, N-(6-(dimethylamino)pyridazin-3-yl)-2-((5-(4-(6-((5-fluoro-4-(4-fluoro-1-isopropyl-2-methyl-1H-benzo[d]imidazol-6-yl)pyrimidin-2-yl)amino)pyridin-3-yl)piperazin-1-yl)-5-oxopentyl)amino)-6-(methylamino)nicotinamide]	> 85%	> 85%
CNc1ccc(C(=O)Nc2ccc(N(C)C)nn2)c(NCCCCCC(=O)N2CCN(c3ccc(Nc4ncc(F)c(-c5cc(F)c6nc(C)n(C(C)C)c6c5)n4)nc3)CC2)n1 [CPD-651, N-(6-(dimethylamino)pyridazin-3-yl)-2-((6-(4-(6-((5-fluoro-4-(4-fluoro-1-isopropyl-2-methyl-1H-benzo[d]imidazol-6-yl)pyrimidin-2-yl)amino)pyridin-3-yl)piperazin-1-yl)-6-oxohexyl)amino)-6-(methylamino)nicotinamide]	> 85%	> 85%
CNc1ccc(C(=O)Nc2ccc(N(C)C)nn2)c(NCCCCCCC(=O)N2CCN(c3ccc(Nc4ncc(F)c(-c5cc(F)c6nc(C)n(C(C)C)c6c5)n4)nc3)CC2)n1 [CPD-652, N-(6-(dimethylamino)pyridazin-3-yl)-2-((7-(4-(6-((5-fluoro-4-(4-fluoro-1-isopropyl-2-methyl-1H-benzo[d]imidazol-6-yl)pyrimidin-2-yl)amino)pyridin-3-yl)piperazin-1-yl)-7-oxoheptyl)amino)-6-(methylamino)nicotinamide]	> 85%	> 85%
CNc1ccc(C(=O)Nc2ccc(N(C)C)nn2)c(NCCCCCCCC(=O)N2CCN(c3ccc(Nc4ncc(F)c(-c5cc(F)c6nc(C)n(C(C)C)c6c5)n4)nc3)CC2)n1 [CPD-653, N-(6-(dimethylamino)pyridazin-3-yl)-2-((8-(4-(6-((5-fluoro-4-(4-fluoro-1-isopropyl-2-methyl-1H-benzo[d]imidazol-6-yl)pyrimidin-2-yl)amino)pyridin-3-yl)piperazin-1-yl)-8-oxooctyl)amino)-6-(methylamino)nicotinamide]	> 85%	> 85%
CNc1ccc(C(=O)Nc2ccc(N(C)C)nn2)c(NCCOCCC(=O)N2CCN(c3ccc(Nc4ncc(F)c(-c5cc(F)c6nc(C)n(C(C)C)c6c5)n4)nc3)CC2)n1 [CPD-654, N-(6-(dimethylamino)pyridazin-3-yl)-2-((2-(3-(4-(6-((5-fluoro-4-(4-fluoro-1-isopropyl-2-methyl-1H-benzo[d]imidazol-6-yl)pyrimidin-2-yl)amino)pyridin-3-yl)piperazin-1-yl)-3-oxopropoxy)ethyl)amino)-6-(methylamino)nicotinamide]	> 85%	> 85%
CNc1ccc(C(=O)Nc2ccc(N(C)C)nn2)c(NCCOCCOCCC(=O)N2CCN(c3ccc(Nc4ncc(F)c(-c5cc(F)c6nc(C)n(C(C)C)c6c5)n4)nc3)CC2)n1 [CPD-655, N-(6-(dimethylamino)pyridazin-3-yl)-2-((2-(2-(3-(4-(6-((5-fluoro-4-(4-fluoro-1-isopropyl-2-methyl-1H-benzo[d]imidazol-6-yl)pyrimidin-2-yl)amino)pyridin-3-yl)piperazin-1-yl)-3-oxopropoxy)ethoxy)ethyl)amino)-6-(methylamino)nicotinamide]	> 85%	> 85%

The next lines start with the values.

activity at 0.01 µM	activity at 0.1 µM	Compound
> 85%	> 85%	CNc1ccc(C(=O)Nc2ccc(N(C)C)nn2)c(NCC(=O)N2CCN(Cc3ccc(Nc4ncc(F)c(-c5cc(F)c6nc(C)n(C(C)C)c6c5)n4)nc3)CC2)n1 [CPD-656, N-(6-(dimethylamino)pyridazin-3-yl)-2-((2-(4-((6-((5-fluoro-4-(4-fluoro-1-isopropyl-2-methyl-1H-benzo[d]imidazol-6-yl)pyrimidin-2-yl)amino)pyridin-3-yl)methyl)piperazin-1-yl)-2-oxoethyl)amino)-6-(methylamino)nicotinamide]
> 85%	> 85%	CNc1ccc(C(=O)Nc2ccc(N(C)C)nn2)c(NCCNC(=O)CN2CCN(c3ccc(Nc4ncc(F)c(-c5cc(F)c6nc(C)n(C(C)C)c6c5)n4)nc3)CC2)n1 [CPD-658, N-(6-(dimethylamino)pyridazin-3-yl)-2-((2-(2-(4-(6-((5-fluoro-4-(4-fluoro-1-isopropyl-2-methyl-1H-benzo[d]imidazol-6-yl)pyrimidin-2-yl)amino)pyridin-3-yl)piperazin-1-yl)acetamido)ethyl)amino)-6-(methylamino)nicotinamide]
> 85%	> 85%	CNc1ccc(C(=O)Nc2ccc(N(C)C)nn2)c(NCCCNC(=O)CN2CCN(c3ccc(Nc4ncc(F)c(-c5cc(F)c6nc(C)n(C(C)C)c6c5)n4)nc3)CC2)n1 [CPD-659, N-(6-(dimethylamino)pyridazin-3-yl)-2-((3-(2-(4-(6-((5-fluoro-4-(4-fluoro-1-isopropyl-2-methyl-1H-benzo[d]imidazol-6-yl)pyrimidin-2-yl)amino)pyridin-3-yl)piperazin-1-yl)acetamido)propyl)amino)-6-(methylamino)nicotinamide]
> 85%	> 85%	CNc1ccc(C(=O)Nc2ccc(N(C)C)nn2)c(NCCCCNC(=O)CN2CCN(c3ccc(Nc4ncc(F)c(-c5cc(F)c6nc(C)n(C(C)C)c6c5)n4)nc3)CC2)n1 [CPD-660, N-(6-(dimethylamino)pyridazin-3-yl)-2-((4-(2-(4-(6-((5-fluoro-4-(4-fluoro-1-isopropyl-2-methyl-1H-benzo[d]imidazol-6-yl)pyrimidin-2-yl)amino)pyridin-3-yl)piperazin-1-yl)acetamido)butyl)amino)-6-(methylamino)nicotinamide]
> 85%	> 85%	CNc1ccc(C(=O)Nc2ccc(N(C)C)nn2)c(NCCCCCNC(=O)CN2CCN(c3ccc(Nc4ncc(F)c(-c5cc(F)c6nc(C)n(C(C)C)c6c5)n4)nc3)CC2)n1 [CPD-661, N-(6-(dimethylamino)pyridazin-3-yl)-2-((5-(2-(4-(6-((5-fluoro-4-(4-fluoro-1-isopropyl-2-methyl-1H-benzo[d]imidazol-6-yl)pyrimidin-2-yl)amino)pyridin-3-yl)piperazin-1-yl)acetamido)pentyl)amino)-6-(methylamino)nicotinamide]
> 85%	> 85%	CNc1ccc(C(=O)Nc2ccc(N(C)C)nn2)c(NCCCCCCNC(=O)CN2CCN(c3ccc(Nc4ncc(F)c(-c5cc(F)c6nc(C)n(C(C)C)c6c5)n4)nc3)CC2)n1 [CPD-662, N-(6-(dimethylamino)pyridazin-3-yl)-2-((6-(2-(4-(6-((5-fluoro-4-(4-fluoro-1-isopropyl-2-methyl-1H-benzo[d]imidazol-6-yl)pyrimidin-2-yl)amino)pyridin-3-yl)piperazin-1-yl)acetamido)hexyl)amino)-6-(methylamino)nicotinamide]
> 85%	55 to 85%	CNc1ccc(C(=O)Nc2ccc(N(C)C)nn2)c(NCCCCCCCNC(=O)CN2CCN(c3ccc(Nc4ncc(F)c(-c5cc(F)c6nc(C)n(C(C)C)c6c5)n4)nc3)CC2)n1 [CPD-663, N-(6-(dimethylamino)pyridazin-3-yl)-2-((7-(2-(4-(6-((5-fluoro-4-(4-fluoro-1-isopropyl-2-methyl-1H-benzo[d]imidazol-6-yl)pyrimidin-2-yl)amino)pyridin-3-yl)piperazin-1-yl)acetamido)heptyl)amino)-6-(methylamino)nicotinamide]
> 85%	> 85%	CNc1ccc(C(=O)Nc2ccc(N(C)C)nn2)c(NCCCCCCCCNC(=O)CN2CCN(c3ccc(Nc4ncc(F)c(-c5cc(F)c6nc(C)n(C(C)C)c6c5)n4)nc3)CC2)n1 [CPD-664, N-(6-(dimethylamino)pyridazin-3-yl)-2-((8-(2-(4-(6-((5-fluoro-4-(4-fluoro-1-isopropyl-2-methyl-1H-benzo[d]imidazol-6-yl)pyrimidin-2-yl)amino)pyridin-3-yl)piperazin-1-yl)acetamido)octyl)amino)-6-(methylamino)nicotinamide]
55 to 85%	> 85%	CNc1ccc(C(=O)Nc2ccc(N(C)C)nn2)c(NCCOCCNC(=O)CN2CCN(c3ccc(Nc4ncc(F)c(-c5cc(F)c6nc(C)n(C(C)C)c6c5)n4)nc3)CC2)n1 [CPD-665, N-(6-(dimethylamino)pyridazin-3-yl)-2-((2-(2-(2-(4-(6-((5-fluoro-4-(4-fluoro-1-isopropyl-2-methyl-1H-benzo[d]imidazol-6-yl)pyrimidin-2-yl)amino)pyridin-3-yl)piperazin-1-yl)acetamido)ethoxy)ethyl)amino)-6-(methylamino)nicotinamide]
> 85%	> 85%	CNc1ccc(C(=O)Nc2ccc(N(C)C)nn2)c(NCCC(=O)NC2CCC(Nc3ncc4ccc(=O)n(C5CCCC5)c4n3)CC2)n1 (stereo not shown) [CPD-666, 2-((3-((4-((8-cyclopentyl-7-oxo-7,8-dihydropyrido[2,3-d]pyrimidin-2-yl)amino)cyclohexyl)amino)-3-oxopropyl)amino)-N-(6-(dimethylamino)pyridazin-3-yl)-6-(methylamino)nicotinamide]
